Data as given in patent US20230023559A1, “ARYLMETHYLENE HETEROCYCLIC COMPOUNDS AS KV1.3 POTASSIUM SHAKER CHANNEL BLOCKERS” (D. E. Shaw Research, LLC, priority 2019, published 2023).

Experiments:
Kv1.3 potassium channel = target: T1, Kv1.3 potassium channel (Homo sapiens, UniProt P22001); assay: Kv1.3 potassium channel blocker activity, automated whole-cell patch clamp (Patchliner); assay type: cell-based; settings: CHO-K1 cells stably expressing Kv1.3; whole cell current inhibition; read-out: Kv1.3_IC50
T1 construct: expressed in transfected cells
T1 sequence (P22001 whole entry): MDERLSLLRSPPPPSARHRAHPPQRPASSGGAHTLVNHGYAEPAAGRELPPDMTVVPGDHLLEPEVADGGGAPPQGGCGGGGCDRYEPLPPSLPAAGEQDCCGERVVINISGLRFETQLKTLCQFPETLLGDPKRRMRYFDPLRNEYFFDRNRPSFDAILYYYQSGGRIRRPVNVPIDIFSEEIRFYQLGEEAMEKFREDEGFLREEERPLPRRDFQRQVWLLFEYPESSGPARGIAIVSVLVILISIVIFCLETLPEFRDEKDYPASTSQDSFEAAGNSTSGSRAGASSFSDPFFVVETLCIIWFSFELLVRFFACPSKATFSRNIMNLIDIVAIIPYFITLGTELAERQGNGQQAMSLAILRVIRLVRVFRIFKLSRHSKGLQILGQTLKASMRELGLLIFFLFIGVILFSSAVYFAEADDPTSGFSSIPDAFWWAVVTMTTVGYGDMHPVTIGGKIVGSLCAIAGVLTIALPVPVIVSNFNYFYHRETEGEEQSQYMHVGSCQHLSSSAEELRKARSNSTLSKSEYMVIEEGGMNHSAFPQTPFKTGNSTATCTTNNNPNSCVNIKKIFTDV
Outline: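 Peak-current block was recorded on stable Kv1.3 CHO-K1 cells by automated patch clamp, stepping from a −90 mV holding potential to +40 mV for 100 ms at 0.1 Hz with 10 s breaks between trains. Online P/4 leak subtraction, 10 kHz sampling; compound exposure under 10 s per train.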

hERG channel = hERG channel (Homo sapiens, UniProt Q12809); assay: hERG electrophysiology, automated whole-cell patch clamp (Patchliner)
Sequence of hERG channel (Q12809 whole entry): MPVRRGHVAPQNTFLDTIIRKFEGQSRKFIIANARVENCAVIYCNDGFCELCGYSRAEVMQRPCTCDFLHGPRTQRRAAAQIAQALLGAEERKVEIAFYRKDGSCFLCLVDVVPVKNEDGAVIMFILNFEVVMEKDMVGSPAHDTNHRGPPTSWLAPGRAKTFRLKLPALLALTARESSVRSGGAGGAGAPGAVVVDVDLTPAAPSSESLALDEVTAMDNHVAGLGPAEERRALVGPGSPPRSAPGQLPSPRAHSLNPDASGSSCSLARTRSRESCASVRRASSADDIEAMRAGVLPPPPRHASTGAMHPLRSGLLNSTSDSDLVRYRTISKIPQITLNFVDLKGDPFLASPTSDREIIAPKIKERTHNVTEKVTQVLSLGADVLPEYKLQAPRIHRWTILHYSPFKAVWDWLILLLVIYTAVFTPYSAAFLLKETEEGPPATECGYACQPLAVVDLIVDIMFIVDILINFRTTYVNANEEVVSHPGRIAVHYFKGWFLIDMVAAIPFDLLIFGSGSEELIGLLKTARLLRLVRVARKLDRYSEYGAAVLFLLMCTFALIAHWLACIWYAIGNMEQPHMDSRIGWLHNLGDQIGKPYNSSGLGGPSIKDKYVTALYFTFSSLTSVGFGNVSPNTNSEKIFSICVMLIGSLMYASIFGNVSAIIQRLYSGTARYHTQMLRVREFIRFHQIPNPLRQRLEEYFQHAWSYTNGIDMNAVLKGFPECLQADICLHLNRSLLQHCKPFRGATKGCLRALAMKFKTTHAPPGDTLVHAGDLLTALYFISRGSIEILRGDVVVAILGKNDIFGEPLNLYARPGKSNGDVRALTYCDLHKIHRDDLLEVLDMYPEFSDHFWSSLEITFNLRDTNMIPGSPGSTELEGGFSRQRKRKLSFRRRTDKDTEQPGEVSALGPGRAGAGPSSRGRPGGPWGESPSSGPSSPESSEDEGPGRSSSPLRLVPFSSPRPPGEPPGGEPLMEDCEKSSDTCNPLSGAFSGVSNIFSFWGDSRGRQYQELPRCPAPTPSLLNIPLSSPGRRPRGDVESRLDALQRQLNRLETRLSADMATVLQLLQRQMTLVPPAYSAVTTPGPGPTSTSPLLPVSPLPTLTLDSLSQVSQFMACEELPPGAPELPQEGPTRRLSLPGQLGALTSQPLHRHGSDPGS

Structure (SMILES) | IC50 (Kv1.3 potassium channel) [µM] | IC50 (hERG channel) [µM]
N[C@@H](c1cc(Cl)c(Cl)cc1O)C1CCN(C(=O)[C@H]2COCCN2)CC1 [Compound 194, (4-((R)-amino(4,5-dichloro-2-hydroxyphenyl)methyl)piperidin-1-yl)((R)-morpholin-3-yl)methanone] | < 0.5 | > 30
N[C@@H](c1cc(Cl)c(Cl)cc1O)C1CCN(C(=O)[C@@H]2COCCN2)CC1 [Compound 195, (4-((R)-amino(4,5-dichloro-2-hydroxyphenyl)methyl)piperidin-1-yl)((S)-morpholin-3-yl)methanone] | < 0.5 | > 30
CNC(c1cc(Cl)c(Cl)cc1O)C1CCN(C(=O)[C@H](O)CO)CC1 (stereo partly drawn) [Compound 196, (2R)-1-[4-[(4,5-dichloro-2-hydroxyphenyl)(methylamino)methyl]piperidin-1-yl]-2,3-dihydroxypropan-1-one] | < 10 | > 30
COC[C@@H](O)C(=O)N1CCC([C@@H](N)c2cc(Cl)c(Cl)cc2O)CC1 [Compound 197, (2R)-1-[4-[(R)-amino(4,5-dichloro-2-hydroxyphenyl)methyl]piperidin-1-yl]-2-hydroxy-3-methoxypropan-1-one trifluoroacetic acid] | < 10 | > 30
Cc1cc([C@H](N)C2CCN(C(=O)[C@H](O)CO)CC2)c(O)cc1Cl [Compound 198, (2R)-1-[4-[(R)-amino(4-chloro-2-hydroxy-5-methylphenyl)methyl]piperidin-1-yl]-2,3-dihydroxypropan-1-one] | < 10 | > 30
C[C@@H](O)[C@@H](N)C(=O)N1CCC([C@@H](N)c2cc(Cl)c(Cl)cc2O)CC1 [Compound 199, (2R,3R)-2-amino-1-[4-[(R)-amino(4,5-dichloro-2-hydroxyphenyl)methyl]piperidin-1-yl]-3-hydroxybutan-1-one trifluoroacetic acid] | < 0.5 | > 30
CC(=O)N1CC(C(=O)N2CCC([C@@H](N)c3cc(Cl)c(Cl)cc3O)CC2)C1 [Compound 200, 1-(3-[4-[(R)-amino(4,5-dichloro-2-hydroxyphenyl)methyl]piperidine-1-carbonyl]azetidin-1-yl)ethan-1-one] | < 10 | > 30
CC(O)(CO)C(=O)N1CCC([C@@H](N)c2cc(Cl)c(Cl)cc2O)CC1 (stereo partly drawn) [Compound 201, 1-[4-[(R)-amino(4,5-dichloro-2-hydroxyphenyl)methyl]piperidin-1-yl]-2,3-dihydroxy-2-methylpropan-1-one Trifluoroacetic Acid] | < 10 | > 30
Cn1cc(C(=O)N2CCC([C@@H](N)c3cc(Cl)c(Cl)cc3O)CC2)cn1 [Compound 203, (R)-(4-(amino(4,5-dichloro-2-hydroxyphenyl)methyl)piperidin-1-yl) (1-methyl-1H-pyrazol-4-yl)methanone] | < 0.5 | < 30
N[C@@H](c1cc(Cl)c(Cl)cc1O)C1CCN(C(=O)c2c[nH]c3ccccc23)CC1 [Compound 204, (R)-(4-(amino(4,5-dichloro-2-hydroxyphenyl)methyl)piperidin-1-yl)(1H-indol-3-yl)methanone trifluoroacetic acid] | < 10 | < 30
N[C@@H](c1cc(Cl)c(Cl)cc1O)C1CCN(C(=O)c2cnoc2)CC1 [Compound 205, 2-[(R)-amino[1-(1,2-oxazole-4-carbonyl)piperidin-4-yl]methyl]-4,5-dichlorophenol] | < 0.5 | > 30
NC(=O)C(=O)N1CCC([C@@H](N)c2cc(Cl)c(Cl)cc2O)CC1 [Compound 206, 2-[4-[(R)-amino(4,5-dichloro-2-hydroxyphenyl)methyl]piperidin-1-yl]-2-oxoacetamide trifluoroacetic acid] | < 0.5 | > 30
Cc1cc(O)c([C@H](N)C2CCN(C(=O)c3c[nH]c(=O)c(CO)c3)CC2)cc1Cl [Compound 207, (R)-5-(4-(amino (5-chloro-2-hydroxy-4-methylphenyl)methyl)piperidine-1-carbonyl)-3-(hydroxymethyl) pyridin-2(1H)-one] | < 0.5 | > 30
C[C@@H](O)[C@H](O)C(=O)N1CCC([C@@H](N)c2cc(Cl)c(Cl)cc2O)CC1 [Compound 208, 1-(4-((R)-amino(4,5-dichloro-2-hydroxyphenyl)methyl)piperidin-1-yl)-2,3-dihydroxybutan-1-one trifluoroacetic acid] | < 0.5 | > 30
N[C@@H](c1cc(Cl)c(Cl)cc1O)C1CCN(C(=O)NCCO)CC1 [Compound 209, 4-[(R)-amino(4,5-dichloro-2-hydroxyphenyl)methyl]-N-(2-hydroxyethyl)piperidine-1-carboxamide Trifluoroacetic Acid] | < 0.5 | > 30
Nc1[nH]ncc1C(=O)N1CCC([C@@H](N)c2cc(Cl)c(Cl)cc2O)CC1 [Compound 211, 2-[(R)-amino[1-(5-amino-1H-pyrazole-4-carbonyl)piperidin-4-yl]methyl]-4,5-dichlorophenol trifluoroacetic acid] | < 0.5 | > 30

Structure (SMILES) | IC50 (Kv1.3 potassium channel) [µM] | IC50 (hERG channel) [µM]
N[C@@H](c1cc(Cl)c(Cl)cc1O)C1CCN(C(=O)C2CC(O)(CO)C2)CC1 (stereo partly drawn) [Compound 213, 2-[(R)-amino([1-[3-hydroxy-3-(hydroxymethyl)cyclobutane-carbonyl]piperidin-4-yl])methyl]-4,5-dichlorophenol trifluoroacetic acid] | < 0.5 | > 30
CN1C(=O)CC[C@@H]1C(=O)N1CCC([C@@H](N)c2cc(Cl)c(Cl)cc2O)CC1 [Compound 216, (5R)-5-[4-[(R)-amino(4,5-dichloro-2-hydroxyphenyl)methyl]piperidine-1-carbonyl]-1-methylpyrrolidin-2-one] | < 10 | > 30
N[C@@H](c1cc(Cl)c(Cl)cc1O)C1CCN(C(=O)C2(O)CNC2)CC1 [Compound 219, 3-[4-[(R)-amino(4,5-dichloro-2-hydroxyphenyl)methyl]piperidine-1-carbonyl]azetidin-3-ol Trifluoroacetic Acid] | < 0.5 | > 30
N[C@@H](c1cc(Cl)c(Cl)cc1O)C1CCN(C(=O)N2CC(O)(CO)C2)CC1 [Compound 220, 1-[4-[(R)-amino(4,5-dichloro-2-hydroxyphenyl)methyl]piperidine-1-carbonyl]-3-(hydroxymethyl)azetidin-3-ol] | < 0.5 | > 30
N[C@@H](c1cc(Cl)c(Cl)cc1O)C1CCN(C(=O)C2CNC(=O)C2)CC1 (stereo partly drawn) [Compound 223, 4-[4-[(R)-amino(4,5-dichloro-2-hydroxyphenyl)methyl]piperidine-1-carbonyl] pyrrolidin-2-one trifluoroacetic acid] | < 0.5 | > 30
N[C@@H](c1cc(Cl)c(Cl)cc1O)C1CCN(C(=O)[C@@H]2CNC(=O)C2)CC1 [Compound 224, (4S)-4-[4-[(R)-amino(4,5-dichloro-2-hydroxyphenyl)methyl]piperidine-1-carbonyl] pyrrolidin-2-one trifluoroacetic acid] | < 0.5 | > 30
N[C@@H](c1cc(Cl)c(CF)cc1O)C1CCN(C(=O)[C@H](O)CO)CC1 [Compound 226, (2R)-1-[4-[(R)-amino[5-chloro-4-(fluoromethyl)-2-hydroxyphenyl]methyl]piperidin-1-yl]-2,3-dihydroxypropan-1-one Trifluoroacetic Acid] | < 0.5 | > 30
Cc1cc(O)c([C@H](N)C2CCN(C(=O)c3ccc(=O)[nH]c3)CC2)cc1Cl [Compound 228, 5-[4-[(R)-amino(5-chloro-2-hydroxy-4-methylphenyl)methyl]piperidine-1-carbonyl]-1H-pyridin-2-one] | < 0.5 | > 30
N[C@@H](c1cc(Cl)c(Cl)cc1O)C1CCN(C(=O)C2CNC(=O)CO2)CC1 (stereo partly drawn) [Compound 231, 6-[4-[(R)-amino(4,5-dichloro-2-hydroxyphenyl)methyl]piperidine-1-carbonyl]morpholin-3-one] | < 0.5 | > 30
Cn1cc(C(=O)N2CCC([C@@H](N)c3cc(Cl)c(Cl)cc3O)CC2)ccc1=O [Compound 232, 5-[4-[(R)-amino(4,5-dichloro-2-hydroxyphenyl)methyl]piperidine-1-carbonyl]-1-methylpyridin-2-one] | < 0.5 | > 30
Cc1cc(O)c([C@H](N)C2CCN(C(=O)CO)CC2)cc1Cl [Compound 233, (R)-1-(4-(amino(5-chloro-2-hydroxy-4-methylphenyl)methyl)piperidin-1-yl)-2-hydroxyethan-1-one trifluoroacetic acid] | < 0.5 | > 30
Cc1cc(O)c([C@H](N)C2CCN(C(=O)C3CNC3)CC2)cc1Cl [Compound 235, 2-[(R)-amino[1-(azetidine-3-carbonyl)piperidin-4-yl]methyl]-4-chloro-5-methylphenol trifluoroacetic acid] | < 0.5 | > 30
Cc1cc(O)c([C@H](N)C2CCN(S(=O)(=O)C3CCNC3)CC2)cc1Cl (stereo partly drawn) [Compound 236, 2-[(R)-amino[1-(pyrrolidine-3-sulfonyl)piperidin-4-yl]methyl]-4-chloro-5-methylphenol Trifluoroacetic Acid] | < 0.5 | > 30
Cc1cc(O)c([C@H](N)C2CCN(C(=O)[C@@H]3CCNC3)CC2)cc1Cl [Compound 237, (4-((R)-amino(5-chloro-2-hydroxy-4-methylphenyl)methyl)piperidin-1-yl)((R)-pyrrolidin-3-yl)methanone trifluoroacetic acid] | < 0.5 | > 30
Cc1cc(O)c([C@H](N)C2CCN(C(=O)c3ccc4nccn4c3)CC2)cc1Cl [Compound 238, 2-[(R)-amino(1-[imidazo[1,2-a]pyridine-6-carbonyl]piperidin-4-yl)methyl]-4-chloro-5-methylphenol trifluoroacetic acid] | < 0.5 | < 30
